According to ChEMBL document CHEMBL1150521, “2-NAP: a selective, hydrophilic, non-peptide CCKA - receptor antagonist derived from the cholecystokinin C-terminal dipeptide” (Bioorg Med Chem Lett, 1993):
The source made the active and inactive calls. The rule behind the calls is not given here. Residues, ends and D or L forms follow the SMILES beside them. *: point of attachment. Boc = CC(C)(C)OC(=O)*

Legend:
[1] = target: T1, Cholecystokinin receptor type A (Cavia porcellus) (UniProt Q63931); test: Affinity at Cholecystokinin type A receptor in guinea pig gall bladder; inactive at the limits of solubility, usually 10e-4 M.; assay type: tissue-based
T1 sequence (whole entry): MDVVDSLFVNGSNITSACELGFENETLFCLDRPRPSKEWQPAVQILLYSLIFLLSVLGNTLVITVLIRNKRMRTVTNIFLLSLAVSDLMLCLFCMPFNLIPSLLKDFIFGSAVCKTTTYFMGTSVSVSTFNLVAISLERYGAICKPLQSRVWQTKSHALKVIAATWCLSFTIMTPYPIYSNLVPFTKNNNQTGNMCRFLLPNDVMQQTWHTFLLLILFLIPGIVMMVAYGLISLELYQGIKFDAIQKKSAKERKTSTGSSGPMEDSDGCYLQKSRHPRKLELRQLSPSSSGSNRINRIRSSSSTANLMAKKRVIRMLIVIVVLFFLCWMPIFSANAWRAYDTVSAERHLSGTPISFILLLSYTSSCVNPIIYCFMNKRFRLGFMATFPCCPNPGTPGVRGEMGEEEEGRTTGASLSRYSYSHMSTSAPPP

[2] = target: T1, Cholecystokinin receptor type A (Cavia porcellus); test: Compound was evaluated for its affinity at Cholecystokinin type A receptor in Guinea-Pig gall bladder; inactive at 10e-4 M; assay type: tissue-based
[3] = target: T2, Gastrin/cholecystokinin type B receptor (Mus musculus) (UniProt P56481); test: Maximum acid secretion obtained at 10e -5 M: values expressed as percentage of the maximum response to pentagastrin (n=4/6) in mouse stomach at CCKB/Gastrin receptor; assay type: functional, tissue-based
T2 sequence (whole entry): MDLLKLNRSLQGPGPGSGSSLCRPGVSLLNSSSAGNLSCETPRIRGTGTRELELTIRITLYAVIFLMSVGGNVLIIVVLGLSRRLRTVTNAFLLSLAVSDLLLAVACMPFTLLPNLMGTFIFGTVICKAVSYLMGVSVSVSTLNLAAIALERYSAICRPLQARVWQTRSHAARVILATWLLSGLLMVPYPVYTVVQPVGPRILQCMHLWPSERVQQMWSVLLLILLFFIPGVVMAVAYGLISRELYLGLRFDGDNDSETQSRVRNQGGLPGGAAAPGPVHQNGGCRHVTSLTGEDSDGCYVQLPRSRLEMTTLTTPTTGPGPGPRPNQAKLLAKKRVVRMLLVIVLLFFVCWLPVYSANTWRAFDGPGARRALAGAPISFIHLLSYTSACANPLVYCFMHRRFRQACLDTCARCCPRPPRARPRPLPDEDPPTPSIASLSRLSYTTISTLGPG

[4] = target: T2, Gastrin/cholecystokinin type B receptor (Mus musculus); test: Efficiency against CCKB/Gastrin receptor for stimulation of gastric acid secretion in lumen-perfused mouse stomach: activity measured as midpoint agonist concentration-effect curve parameter; assay type: functional, tissue-based
[5] = target: T1, Cholecystokinin receptor type A (Cavia porcellus); test: Binding affinity for Cholecystokinin type A receptor in Guinea-Pig gall bladder; assay type: tissue-based
[6] = target: T2, Gastrin/cholecystokinin type B receptor (Mus musculus); test: Maximum acid secretion obtained at 10e -5 M: values expressed as percentage of the maximum response to pentagastrin (n=4/6) in mouse stomach at CCKB/Gastrin receptor; inactive at the limits of solubility, usually 10e-4 M.; assay type: functional, tissue-based
[7] = target: T2, Gastrin/cholecystokinin type B receptor (Mus musculus); test: Efficiency against CCKB/Gastrin receptor for stimulation of gastric acid secretion in lumen-perfused mouse stomach: activity measured as midpoint agonist concentration-effect curve parameter; inactive at the limits of solubility, u sually 10e-4M.; assay type: functional, tissue-based
[8] = target: T1, Cholecystokinin receptor type A (Cavia porcellus); test: Compound was evaluated for its affinity at Cholecystokinin type A receptor in Guinea-Pig gallbladder; inactive at the limits of solubility, usually 10e-4 M.
[9] = target: T3, Gastrin/cholecystokinin type B receptor (Mus musculus, UniProt P56481); test: Compound was evaluated for its affinity against Cholecystokinin type B receptor in mouse cerebral cortex; assay type: tissue-based
T3 sequence (P56481 whole entry): T2 sequence (whole entry)

[10] = Compound was evaluated for partition coefficient using chloroform/buffer at pH 7.4 and 254 nm; assay type: physicochemical; settings: octanol/water
[11] = target: T4, Cholecystokinin receptor type A (Cavia porcellus, UniProt Q63931); test: In vitro affinity against Cholecystokinin type A receptor in guinea pig pancreatic cell
T4 sequence (Q63931 whole entry): T1 sequence (whole entry)

[12] = Compound was evaluated for partition coefficient using chloroform/buffer at pH 7.4 and 280 nm; assay type: physicochemical; settings: octanol/water
[13] = target: T1, Cholecystokinin receptor type A (Cavia porcellus); test: Compound was evaluated for its affinity at Cholecystokinin type A receptor in Guinea-Pig gallbladder
[14] = target: T1, Cholecystokinin receptor type A (Cavia porcellus); test: Compound was evaluated for its affinity at Cholecystokinin type A receptor in Guinea-Pig gall bladder; assay type: tissue-based

SMILES: O=C(O)C[C@H](NS(=O)(=O)CCCc1ccccc1)C(=O)NCCc1ccccc1
- pKB [1]: inactive

SMILES: CC(C)(C)OC(=O)N[C@@H](CC(=O)O)C(=O)N[C@@H](Cc1ccccc1)C(N)=O (Boc-Asp-Phe-NH2)
- pKB [2]: inactive
- Max response [3]: 100%
- p[A50] [4]: 5.7

SMILES: COc1ccc2cc(S(=O)(=O)N[C@@H](CC(=O)O)C(=O)NCCc3ccccc3)ccc2c1
- pKB [5]: 6.6

SMILES: O=C(O)C[C@H](NS(=O)(=O)c1cccc2ccccc12)C(=O)NCCc1ccccc1
- pKB [1]: inactive
- Max response [6]: inactive
- p[A50] [7]: inactive

SMILES: COc1ccc(CCNC(=O)[C@H](CC(=O)O)NS(=O)(=O)c2ccc3ccccc3c2)cc1
- pKB [5]: 6

SMILES: O=C(O)C[C@H](NS(=O)(=O)Cc1ccccc1)C(=O)NCCc1ccccc1
- pKB [1]: inactive

SMILES: O=C(O)C[C@H](NS(=O)(=O)c1ccccc1)C(=O)NCCc1ccccc1
- pKB [1]: inactive

SMILES: O=C(O)C[C@H](NS(=O)(=O)c1ccc2ccccc2c1)C(=O)NCCCc1ccccc1
- pKB [5]: 7

SMILES: O=C(O)C[C@H](NS(=O)(=O)c1ccc(Cl)c(Cl)c1)C(=O)NCCc1ccccc1
- pKB [5]: 5.8

SMILES: O=C(O)C[C@@H](NS(=O)(=O)c1ccc2ccccc2c1)C(=O)NCCc1ccccc1
- pKB [5]: 5.9

SMILES: CC(C)(C)OC(=O)N[C@@H](CC(=O)O)C(=O)NCCc1ccccc1
- pKB [8]: inactive
- Max response [6]: inactive
- p[A50] [7]: inactive

SMILES: Cc1ccc(S(=O)(=O)N[C@@H](CC(=O)O)C(=O)NCCc2ccccc2)cc1
- pKB [1]: inactive

SMILES: COc1cc2cc(S(=O)(=O)N[C@@H](CC(=O)O)C(=O)NCCc3ccccc3)ccc2c(Cl)c1OC
- pKB [5]: 6.2

SMILES: NS(=O)(=O)c1ccc(CCNC(=O)[C@H](CC(=O)O)NS(=O)(=O)c2ccc3ccccc3c2)cc1
- pKB [5]: 5

SMILES: COc1ccc(S(=O)(=O)N[C@@H](CC(=O)O)C(=O)NCCc2ccccc2)cc1
- pKB [1]: inactive

SMILES: NC(=O)[C@H](Cc1ccccc1)NC(=O)[C@H](CC(=O)O)NC(=O)c1ccc2ccccc2c1
- pKB [1]: inactive
- Max response [3]: 100%
- p[A50] [4]: 5

SMILES: O=C(O)C[C@H](NS(=O)(=O)/C=C/c1ccccc1)C(=O)NCCc1ccccc1
- pKB [5]: 6.3

SMILES: O=C(O)C[C@H](NS(=O)(=O)c1ccc2ccccc2c1)C(=O)NCCc1ccccc1
- Ki [9]: 69.2 µM
- pKB [1]: 6.5
- logD [10]: -0.91
- Max response [6]: inactive
- Ki [11]: 0.355 µM
- logD [12]: -0.91
- p[A50] [7]: inactive

SMILES: O=C(O)C[C@H](NC(=O)c1ccc2ccccc2c1)C(=O)NCCc1ccccc1
- pKB [13]: 5.6
- Max response [6]: inactive
- p[A50] [7]: inactive

SMILES: O=C(O)C[C@H](NS(=O)(=O)CCc1ccccc1)C(=O)NCCc1ccccc1
- pKB [5]: 5.5

SMILES: CC(C)C[C@H](NC(=O)[C@H](Cc1c[nH]c2ccccc12)NC(=O)OC(C)(C)C)C(=O)N[C@@H](CC(=O)O)C(=O)N[C@@H](Cc1ccccc1)C(N)=O (Boc-WLDF-NH2)
- Max response [3]: 100%
- p[A50] [4]: 8.6
- pKB [14]: 5.1

SMILES: CN1C(=O)[C@@H](NC(=O)c2cc3ccccc3[nH]2)N=C(c2ccccc2)c2ccccc21 [DEVAZEPIDE]
- logD [10]: 4.16
- logD [12]: 4.1

SMILES: NC(=O)[C@H](Cc1ccccc1)NC(=O)[C@H](CC(=O)O)NS(=O)(=O)c1ccc2ccccc2c1
- pKB [1]: inactive
- Max response [3]: 96%
- p[A50] [4]: 5.6

SMILES: O=C(O)CC[C@H](NS(=O)(=O)c1ccc2ccccc2c1)C(=O)NCCc1ccccc1
- pKB [5]: 6.1

SMILES: NC(=O)[C@H](Cc1ccccc1)NC(=O)[C@H](CC(=O)O)NS(=O)(=O)c1cccc2ccccc12
- pKB [1]: inactive
- Max response [3]: 30%
- p[A50] [4]: 4.6

SMILES: O=C(O)C[C@H](NS(=O)(=O)Cc1ccc2ccccc2c1)C(=O)NCCc1ccccc1
- pKB [5]: 5.4

SMILES: COc1ccc2cc(S(=O)(=O)N[C@@H](CC(=O)O)C(=O)NCCc3ccccc3)ccc2c1Cl
- pKB [5]: 6.5

SMILES: O=C(O)C[C@H](NS(=O)(=O)c1ccc2ccccc2c1)C(=O)NCCc1ccc(F)cc1
- pKB [5]: 6.6

SMILES: O=C(O)CC[C@@H](NS(=O)(=O)c1ccc2ccccc2c1)C(=O)NCCc1ccccc1
- pKB [1]: inactive
